Residues, ends and D or L forms follow the SMILES beside them.
Assays:
Experiment in all cases: In-house protein microarrays (with or without 5 mM DTT), protein named per line
Format in all cases: binding
[1] = molecular target: T1, SH2 and PTB domains (Homo sapiens, UniProt P42680); details: protein TEC
T1 construct: thioredoxin; made in house; host or cells: BL21(DE3)pLysS E. coli
T1 sequence (P42680 1-631): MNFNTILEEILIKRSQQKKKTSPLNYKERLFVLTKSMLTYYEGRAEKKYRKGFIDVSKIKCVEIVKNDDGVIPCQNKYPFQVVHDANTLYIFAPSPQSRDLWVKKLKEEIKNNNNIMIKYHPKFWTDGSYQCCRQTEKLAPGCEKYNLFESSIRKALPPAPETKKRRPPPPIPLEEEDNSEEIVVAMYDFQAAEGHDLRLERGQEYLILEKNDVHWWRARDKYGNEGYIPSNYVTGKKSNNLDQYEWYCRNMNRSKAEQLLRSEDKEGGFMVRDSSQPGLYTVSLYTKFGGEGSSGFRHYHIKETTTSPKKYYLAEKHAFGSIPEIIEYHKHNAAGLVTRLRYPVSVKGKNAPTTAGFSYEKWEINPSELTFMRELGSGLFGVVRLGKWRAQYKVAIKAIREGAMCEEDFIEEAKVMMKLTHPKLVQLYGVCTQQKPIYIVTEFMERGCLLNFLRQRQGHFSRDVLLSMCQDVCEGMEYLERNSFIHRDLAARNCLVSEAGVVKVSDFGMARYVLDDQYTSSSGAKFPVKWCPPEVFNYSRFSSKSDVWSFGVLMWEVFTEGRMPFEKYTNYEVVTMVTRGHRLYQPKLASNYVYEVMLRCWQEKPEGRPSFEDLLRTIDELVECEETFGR
Method in brief: (§1)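 KD values come from rhodamine fluorescence of duplicate spots after subtraction of a thioredoxin control. Domains were printed at ~40 µM on aldehyde slides, blocked 1 h at room temperature in pH 7.8 HEPES/KCl buffer with 5 mM DTT and 1% BSA, then peptide-probed.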

[2] = molecular target: T2, SH2 and PTB domains (Homo sapiens, UniProt P19174)
T2 construct: thioredoxin; made in house; host or cells: BL21(DE3)pLysS E. coli
T2 sequence (P19174 1-1290): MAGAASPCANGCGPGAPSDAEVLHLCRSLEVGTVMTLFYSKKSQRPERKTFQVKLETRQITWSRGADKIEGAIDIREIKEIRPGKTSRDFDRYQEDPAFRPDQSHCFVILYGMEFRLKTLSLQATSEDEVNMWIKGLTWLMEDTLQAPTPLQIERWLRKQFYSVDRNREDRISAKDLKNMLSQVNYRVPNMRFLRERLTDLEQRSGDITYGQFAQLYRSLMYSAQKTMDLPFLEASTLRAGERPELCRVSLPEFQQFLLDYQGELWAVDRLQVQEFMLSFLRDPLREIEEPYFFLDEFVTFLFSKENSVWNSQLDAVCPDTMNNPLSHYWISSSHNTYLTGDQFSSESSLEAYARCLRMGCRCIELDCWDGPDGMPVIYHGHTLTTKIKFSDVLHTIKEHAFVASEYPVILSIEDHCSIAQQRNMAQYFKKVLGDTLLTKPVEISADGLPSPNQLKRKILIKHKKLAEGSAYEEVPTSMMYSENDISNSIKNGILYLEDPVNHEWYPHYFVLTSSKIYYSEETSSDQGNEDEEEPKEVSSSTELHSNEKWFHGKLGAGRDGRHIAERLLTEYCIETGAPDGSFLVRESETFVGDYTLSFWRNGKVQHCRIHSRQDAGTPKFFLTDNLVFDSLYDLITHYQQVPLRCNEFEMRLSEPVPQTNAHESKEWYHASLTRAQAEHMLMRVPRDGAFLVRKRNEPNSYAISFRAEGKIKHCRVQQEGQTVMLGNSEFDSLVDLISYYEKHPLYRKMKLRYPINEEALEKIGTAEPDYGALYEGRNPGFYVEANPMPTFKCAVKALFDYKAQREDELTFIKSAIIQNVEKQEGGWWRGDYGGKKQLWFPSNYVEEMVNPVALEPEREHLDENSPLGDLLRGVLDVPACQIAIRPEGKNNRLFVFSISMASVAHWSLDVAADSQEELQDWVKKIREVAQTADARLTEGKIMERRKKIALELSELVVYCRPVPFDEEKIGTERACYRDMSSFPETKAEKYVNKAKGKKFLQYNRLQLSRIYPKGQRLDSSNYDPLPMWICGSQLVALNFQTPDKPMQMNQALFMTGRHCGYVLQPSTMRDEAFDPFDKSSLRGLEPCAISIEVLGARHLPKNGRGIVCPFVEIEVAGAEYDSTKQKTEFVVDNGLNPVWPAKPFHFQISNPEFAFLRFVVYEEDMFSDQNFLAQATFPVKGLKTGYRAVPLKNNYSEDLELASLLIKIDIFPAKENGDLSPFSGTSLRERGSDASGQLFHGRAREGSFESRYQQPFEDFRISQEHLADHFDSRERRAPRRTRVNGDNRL
Method in brief: as §1

[3] = molecular target: T3, SH2 and PTB domains (Homo sapiens, UniProt Q7M4L6); details: protein SHF
T3 construct: thioredoxin; made in house; host or cells: BL21(DE3)pLysS E. coli
Method in brief: as §1

[4] = PM assay replicate # 39336, array fabrication # 39329
[5] = PM assay replicate # 39337, array fabrication # 39329

T3 sequence (Q7M4L6 whole entry, the tested form may be a part): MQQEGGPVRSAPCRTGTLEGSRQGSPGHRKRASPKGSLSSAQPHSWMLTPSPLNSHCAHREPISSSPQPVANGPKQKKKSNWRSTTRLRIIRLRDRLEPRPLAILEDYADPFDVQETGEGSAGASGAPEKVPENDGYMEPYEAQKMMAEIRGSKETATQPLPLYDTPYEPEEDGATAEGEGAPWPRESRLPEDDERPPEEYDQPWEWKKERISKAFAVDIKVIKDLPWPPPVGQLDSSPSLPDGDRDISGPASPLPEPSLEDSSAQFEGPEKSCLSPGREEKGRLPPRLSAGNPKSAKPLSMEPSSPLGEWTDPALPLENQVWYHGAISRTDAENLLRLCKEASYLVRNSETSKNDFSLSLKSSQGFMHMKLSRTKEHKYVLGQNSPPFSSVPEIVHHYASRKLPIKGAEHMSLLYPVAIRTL

Q: What does the source list for CC(C)C[C@H](NC(=O)[C@@H]1CCCN1)C(=O)N[C@@H](CCC(N)=O)C(=O)N[C@@H](CCCNC(=N)N)C(=O)N[C@@H](Cc1ccc(OP(=O)(O)O)cc1)C(=O)N[C@@H](CO)C(=O)N[C@@H](CCC(=O)O)C(=O)N[C@@H](CC(=O)O)C(=O)N1CCC[C@H]1C(=O)N[C@H](C(=O)N[C@H](C(=O)N1CCC[C@H]1C(=O)N[C@@H](CC(=O)O)C(=O)O)C(C)C)[C@@H](C)O [ErbB2 pY1112] (HELM PEPTIDE1{P.L.Q.R.[O=C([C@H](Cc1ccc(OP(=O)(O)O)cc1)N[*:1])[*:2]].S.E.D.P.T.V.P.D}$$$$V2.0)?
A: Kd ([1]; PM assay replicate # 39331, array fabrication # 39329): 26530 nM; Kd [1, 4]: 5070 nM

Q: What does the source list for CC(C)C[C@H](NC(=O)[C@@H]1CCCN1C(=O)[C@H](C)NC(=O)[C@@H](NC(=O)[C@H](Cc1ccc(OP(=O)(O)O)cc1)NC(=O)CNC(=O)[C@H](CC(=O)O)NC(=O)[C@@H](NC(=O)[C@@H](N)CCC(=O)O)[C@@H](C)O)C(C)C)C(=O)N[C@H](C(=O)N[C@@H](CS)C(=O)N[C@@H](CO)C(=O)N[C@@H](CC(=O)O)C(=O)O)[C@@H](C)O [ErbB2 pY1127]?
A: Kd [1, 4]: 1600 nM; Kd [1, 5]: 40 nM; Kd ([1]; PM assay replicate # 39603, array fabrication # 39392): 250 nM; Kd ([2]; protein PLCG1-C, PM assay replicate # 39336, array fabrication # 39329): 4090 nM; Kd ([2]; protein PLCG1-C, PM assay replicate # 39337, array fabrication # 39329): 110 nM; Kd ([2]; protein PLCG1-NC, PM assay replicate # 39336, array fabrication # 39329): 8820 nM; Kd ([2]; protein PLCG1-NC, PM assay replicate # 39337, array fabrication # 39329): 1920 nM

Q: Which results are given for CCN(CC)c1ccc2c(-c3ccc(C(=O)N[C@@H](CC(N)=O)C(=O)NCC(=O)N4CCC[C@H]4C(=O)N4CCC[C@H]4C(=O)N[C@@H](CCCCN)C(=O)N[C@@H](C)C(=O)N[C@@H](CCC(=O)O)C(=O)N[C@@H](CC(=O)O)C(=O)N[C@@H](CCC(=O)O)C(=O)N[C@@H](Cc4ccc(OP(=O)(O)O)cc4)C(=O)N[C@H](C(=O)N[C@@H](CC(N)=O)C(=O)N[C@@H](CCC(=O)O)C(=O)N4CCC[C@H]4C(=O)N[C@@H](CC(C)C)C(=O)N[C@@H](Cc4ccc(O)cc4)C(=O)N[C@@H](CC(C)C)C(=O)N[C@@H](CC(=O)O)C(=O)O)C(C)C)cc3C(=O)[O-])c3ccc(=[N+](CC)CC)cc-3oc2c1 [ErbB4 1202 (18-mer)] (HELM PEPTIDE1{[CCN(CC)c1ccc2c(-c3ccc(C(=O)[*:2])cc3C(=O)[O-])c3ccc(=[N+](CC)CC)cc-3oc2c1].N.G.P.P.K.A.E.D.E.[O=C([C@H](Cc1ccc(OP(=O)(O)O)cc1)N[*:1])[*:2]].V.N.E.P.L.Y.L.D}$$$$V2.0)?
A: Kd [3, 5]: 11920 nM; Kd ([2]; protein PLCG1-C, PM assay replicate # 39307, array fabrication # 39286): 1260 nM

Q: For CC[C@H](C)[C@H](NC(=O)[C@H](CC(N)=O)NC(=O)[C@H](CC(N)=O)NC(=O)[C@H](CCCCN)NC(=O)[C@H](CC(C)C)NC(=O)[C@H](Cc1ccc(OP(=O)(O)O)cc1)NC(=O)[C@H](CCC(=O)O)NC(=O)[C@H](C)NC(=O)[C@H](CCCCN)NC(=O)CNC(=O)[C@H](CC(C)C)NC(=O)[C@@H](NC(=O)[C@H](CC(N)=O)NC(=O)[C@H](C)NC(=O)[C@@H](N)Cc1ccccc1)[C@@H](C)O)C(=O)N[C@@H](CC(C)C)C(=O)N[C@@H](CO)C(=O)N[C@@H](CC(=O)O)C(=O)O [ErbB4 pY1221 (18-mer)] (HELM PEPTIDE1{F.A.N.T.L.G.K.A.E.[O=C([C@H](Cc1ccc(OP(=O)(O)O)cc1)N[*:1])[*:2]].L.K.N.N.I.L.S.D}$$$$V2.0), which “Kd” value ([3]; PM assay replicate # 39307, array fabrication # 39286) is on record?
A: 1190 nM

Reference: PMC3433420 (PLoS ONE, 2012)
